# US11000033B2, “Ketone or oxime compound, and herbicide” (NISSAN CHEMICAL CORPORATION, priority 2014, dated 2021)
# Tests used:
# Format in all cases: in vivo
# transplanted rice plant = test: Test Example 1: effect on crop, application before weed generation in submerged conditions (symbol a); conditions: application herbicide amount 320 g/ha
# In short: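 Alluvial soil pots flooded to 4 cm water, sown with Echinochloa oryzacola, Scirpus juncoides and Monochoria vaginalis, then transplanted with 2.5 leaf stage rice seedlings; pre-emergence application. Greenhouse 25° C. to 30° C.; scored 0–5 by herbicidal ratio 3 weeks after application.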
# [1] = test system: Echinochloa crus-galli var. crus-galli; test: Test Example 3: herbicidal effect by foliage application, Wagner pot (symbol H); conditions: application herbicide amount 320 g/ha
# In short: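 Weeds and rice were sown in alluvial soil under 0.1–0.5 cm of standing water and grown for 14 days in a 25–30 °C greenhouse. An emulsion of the compound, diluted in water to a set dose, was sprayed evenly onto the foliage. Effect was scored against fixed criteria 3 weeks after treatment.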
# Alopecurus myosuroides [2] = test: Test Example 4: herbicidal effect by soil treatment (symbol J); conditions: application herbicide amount 320 g/ha
# In short: (§1)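 Seeds were sown in sterilized diluvial soil, covered with about 1.5 cm of soil, and the soil surface was sprayed with a water-diluted emulsion of the compound at a predetermined rate. Plants grew in a greenhouse at 25° C. to 30° C.; effects were scored visually 3 weeks after application.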
# Abutilon theophrasti = test: Test Example 4: herbicidal effect by soil treatment (symbol M); conditions: application herbicide amount 320 g/ha
# In short: as §1
# Chenopodium album [3] = test: Test Example 4: herbicidal effect by soil treatment (symbol O); conditions: application herbicide amount 320 g/ha
# In short: as §1
# Stellaria media = test: Test Example 4: herbicidal effect by soil treatment (symbol P); conditions: application herbicide amount 320 g/ha
# In short: as §1
# Galium spurium = test: Test Example 4: herbicidal effect by soil treatment (symbol Q); conditions: application herbicide amount 320 g/ha
# In short: as §1
# corn [4] = test: Test Example 4: effect on crop by soil treatment (symbol c); conditions: application herbicide amount 320 g/ha
# In short: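 Greenhouse culture at 25° C. to 30° C. followed sowing of seed in spots on sterilized diluvial soil with a soil cover close to 1.5 cm thick.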
# [5] = test system: Echinochloa crus-galli var. crus-galli; test: Test Example 5: herbicidal effect by foliage application, plastic box (symbol H); conditions: 320 g/ha, 3 weeks after application
# In short: (§2)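 Visual herbicidal score, taken three weeks post-application, of seedlings sprayed on the foliage with water-diluted emulsion at a predetermined amount; plants were 14 days old, greenhouse-raised at 25° C. to 30° C.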
# Alopecurus myosuroides [6] = test: Test Example 5: herbicidal effect by foliage application, plastic box (symbol J); conditions: 320 g/ha, 3 weeks after application
# In short: as §2
# Lolium multiflorum Lam. = test: Test Example 5: herbicidal effect by foliage application, plastic box (symbol K); conditions: 320 g/ha, 3 weeks after application
# In short: as §2
# Apera spica-venti = test: Test Example 5: herbicidal effect by foliage application, plastic box (symbol L); conditions: 320 g/ha, 3 weeks after application
# In short: as §2
# Amaranthus retroflexus = test: Test Example 5: herbicidal effect by foliage application, plastic box (symbol N); conditions: 320 g/ha, 3 weeks after application
# In short: as §2
# Chenopodium album [7] = test: Test Example 5: herbicidal effect by foliage application, plastic box (symbol O); conditions: 320 g/ha, 3 weeks after application
# In short: as §2
# Veronica persica = test: Test Example 5: herbicidal effect by foliage application, plastic box (symbol R); conditions: 320 g/ha, 3 weeks after application
# In short: as §2
# corn [8] = test: Test Example 5: effect on crop by foliage application, plastic box (symbol c); conditions: 320 g/ha, 3 weeks after application
# In short: (§3)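 Seeds were sown in spots in sterilized diluvial soil held in a plastic box 21 cm × 13 cm × 7 cm deep, covered with about 1.5 cm of soil, and grown in a greenhouse at 25° C. to 30° C.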
# soybean = test: Test Example 5: effect on crop by foliage application, plastic box (symbol d); conditions: 320 g/ha, 3 weeks after application
# In short: as §3
Compound,"Effect grade on crop, a: transplanted rice plant (transplanted rice plant)","herbicidal effect on H (Echinochloa crus-galli var. crus-galli), grade 0-5 [1]","Herbicidal effect grade, J: Alopecurus myosuroides (Alopecurus myosuroides [2])","Herbicidal effect grade, M: Abutilon theophrasti (Abutilon theophrasti)","Herbicidal effect grade, O: Chenopodium album (Chenopodium album [3])","Herbicidal effect grade, P: Stellaria media (Stellaria media)","Herbicidal effect grade, Q: Galium spurium (Galium spurium)","Effect on crop grade, c: corn (corn [4])","H: Echinochloa crus-galli var. crus-galli, herbicidal effect (criteria of Test Example 1) [5]","J: Alopecurus myosuroides, herbicidal effect (criteria of Test Example 1) (Alopecurus myosuroides [6])","K: Lolium multiflorum Lam., herbicidal effect (criteria of Test Example 1) (Lolium multiflorum Lam.)","L: Apera spica-venti, herbicidal effect (criteria of Test Example 1) (Apera spica-venti)","N: Amaranthus retroflexus, herbicidal effect (criteria of Test Example 1) (Amaranthus retroflexus)","O: Chenopodium album, herbicidal effect (criteria of Test Example 1) (Chenopodium album [7])","R: Veronica persica, herbicidal effect (criteria of Test Example 1) (Veronica persica)","c: corn, effect on crop (criteria of Test Example 1) (corn [8])","d: soybean, effect on crop (criteria of Test Example 1) (soybean)"
CON=C(C)CC1CC(OC(=O)N2CCOCC2)=C(c2c(C)cc(C)cc2OC)C1=O (stereo not shown) [6-094],5 (Herbicidal ratio of 90% or more (almost completely withered)),5 (Herbicidal ratio of 90% or more (almost completely withered)),5 (Herbicidal ratio of 90% or more (almost completely withered)),4 (Herbicidal ratio of 70% or higher and lower than 90%),5 (Herbicidal ratio of 90% or more (almost completely withered)),0 (Herbicidal ratio of 5% or lower (almost no effect)),0 (Herbicidal ratio of 5% or lower (almost no effect)),1 (Herbicidal ratio of 5% or higher and lower than 20%),5 (Herbicidal ratio of 90% or more (almost completely withered)),5 (Herbicidal ratio of 90% or more (almost completely withered)),5 (Herbicidal ratio of 90% or more (almost completely withered)),5 (Herbicidal ratio of 90% or more (almost completely withered)),0 (Herbicidal ratio of 5% or lower (almost no effect)),5 (Herbicidal ratio of 90% or more (almost completely withered)),4 (Herbicidal ratio of 70% or higher and lower than 90%),5 (Herbicidal ratio of 90% or more (almost completely withered)),4 (Herbicidal ratio of 70% or higher and lower than 90%)
CON=C(C)CC1CC(OS(=O)(=O)N(C)C)=C(c2c(C)cc(C)cc2OC)C1=O (stereo not shown) [6-095],5 (Herbicidal ratio of 90% or more (almost completely withered)),5 (Herbicidal ratio of 90% or more (almost completely withered)),5 (Herbicidal ratio of 90% or more (almost completely withered)),5 (Herbicidal ratio of 90% or more (almost completely withered)),0 (Herbicidal ratio of 5% or lower (almost no effect)),0 (Herbicidal ratio of 5% or lower (almost no effect)),0 (Herbicidal ratio of 5% or lower (almost no effect)),2 (Herbicidal ratio of 20% or higher and lower than 40%),5 (Herbicidal ratio of 90% or more (almost completely withered)),5 (Herbicidal ratio of 90% or more (almost completely withered)),5 (Herbicidal ratio of 90% or more (almost completely withered)),5 (Herbicidal ratio of 90% or more (almost completely withered)),0 (Herbicidal ratio of 5% or lower (almost no effect)),5 (Herbicidal ratio of 90% or more (almost completely withered)),3 (Herbicidal ratio of 40% or higher and lower than 70%),5 (Herbicidal ratio of 90% or more (almost completely withered)),3 (Herbicidal ratio of 40% or higher and lower than 70%)
